This is an account of results in US20180147206A1, “ACTIVATION OF NEURONAL STORE-OPERATED CALCIUM ENTRY PATHWAY FOR THE TREATMENT OF ALZHEIMER'S DISEASE” (The Board of Regents of the University of Texas System, priority 2015, published 2018).

Test [1] concerns amyloid plaques. As to the kind of experiment: Aβ immunohistochemistry, amyloid plaque load in APPKI mice. It counts as in vivo, mouse. To be noted: 13 month-old APPKI mice; i.p. 10 mg/kg three times per week for 8 weeks.
For test [2], the system named is mushroom spines of hippocampal neurons. Briefly: Dendritic spine analysis in primary hippocampal neural cultures. The format is cell-based, mouse. The settings on record: for mushroom spine loss: 30 nM for 16 hours. The procedure:
FIGS. 4A-E. NSN21778 and Hyperforin rescue synaptic nSOC and mushroom spine loss in AD hippocampal neurons. (FIG. 4A) Chemical structure of NSN21778 and Hyperforin. (FIG. 4B) Time-course of GCaMP5.3 fluorescence signal changes in the spines of wild-type, PS1KI and APPKI hippocampal neurons. The time of extracellular Ca^2+ re-addition is indicated by a black bar above the traces. 100 μM DHPG was added 50 sec prior to Ca^2+ re-addition. The results are shown for control (CON) neurons and for neurons pretreated with 300 nM NSN21778 (+NSN) or 300 nM Hyperforin (+Hyp) for 30 min as indicated. For each experimental group individual spine (grey) and average (red) fluorescence traces are shown. (FIG. 4C) The average nSOC spine peak amplitude is shown for each group of cells shown on panel B. The mean AF/Fo signals for each group and presented as mean±SE (n≥45 spines). ***, p <0.001. (FIG. 4D) Confocal images of wild-type, PS1KI and APPKI hippocampal neurons transfected with TD-Tomato and fixed at DIV15-16. The images are shown for control neurons (CON) and for neurons treated with 30 nM NSN21778 (+NSN) or 30 nM Hyperforin (+Hyp) for 16 hours prior to fixation. Scale bar is 10 μm. (FIG. 4E) The average fraction of mushroom spines for each group of cells shown on FIG. 4D is presented as mean±SE (n≥18 neurons). ***, p <0.001.
FIGS. 5A-E. TRPC6 is a molecular target for NSN21778 and Hyperforin. (FIGS. 5A-B) Time course of Fura-2 Ca^2+ signals is shown for HEK293 cells transfected with EGFP plasmid (GFP) or combination of EGFP and TRPC6 plasmids (TRPC6). Cells were incubated in ACSF media containing 2 mM Ca^2+. In experiments shown in FIG. 5B, cells were moved to modified ACSF media containing 0.1 mM Ca^2+ for 2 min and then returned to the media containing 2 mM Ca^2+ with addition of 100 μM OAG. The time of addition of 1 μM Hyperforin (Hyp) or NSN21778 (NSN) is indicated by red bars above the Fura-2 traces. For each experimental group individual spine (grey) and average (red) fluorescence traces are shown. (FIG. 5C) The average Ca^2+ influx peak is shown for experiments presented on FIGS. 5A-B as mean±SE (n≥81). (FIG. 5D) Confocal images of wild-type and PS1KI hippocampal neurons transfected with TD-Tomato and fixed at DIV15-16. The neurons were infected with lentiviruses encoding control RNAi (siCtrl), RNAi against TRPC6 (siT6) or RNAi against Orai2 (siO2). The images are shown for no drug treated neurons (CON) and for neurons treated with 30 nM NSN21778 (+NSN) or 30 nM Hyperforin (+Hyp) for 16 hours prior to fixation. Scale bar is 10 μm. No drug treated group of wild-type and PS1KI neurons is from the same experiment as shown on FIG. 2A-J. (FIG. 5E) The average fraction of mushroom spines for each group of cells shown on panel A is presented as mean±SE (n≥19 neurons). ***, p <0.001.
Dendritic Spine Analysis in Primary Hippocampal Neural Cultures. The hippocampal cultures of PS1KI, APPKI and WT mice were established from postnatal day 0-1 pups and maintained in culture as the inventors described previously [Zhang, 2010 #5733]. For assessment of synapse morphology, hippocampal cultures were transfected with TD-Tomato plasmid at DIV7 using the calcium phosphate method and fixed (4% formaldehyde, 4% sucrose in PBS, pH 7.4) at DIV15-16. A Z-stack of optical section was captured using 100× objective with a confocal microscope (Carl Zeiss Axiovert 100M with LSM510). 18-20 cultured neurons from three batches of cultures were used for quantitative analysis per genotype. Quantitative analysis for dendritic spines was performed by using NeuronStudio software package [Rodriguez, 2008 #6276]. To classify the shape of neuronal spines in culture, the inventors adapted an algorithm from published method [Rodriguez, 2008 #6276]. In classification of spine shapes the inventors used the following cutoff values: aspect ratio for thin spines (AR_thin(crio))=2.5, head to neck ratio (HNR(crit))=1.4, and head diameter (HD(crit))=0.5 μm. […]

For `CC(=O)Nc1ccc(CCNc2ncnc3ccc(N)cc23)cc1` [NSN21778, N-{4-[2-(6-Amino-quinazolin-4-ylamino)-ethyl]-phenyl}-acetamide], in test [1], the plaque intensity entry is reported as “significant reduction”. Moreover, in test [1], the total plaque area entry is listed as “significant reduction”. For the same molecule, the mushroom spines entry in test [2] (PS1KI and APPKI neurons, 30 nM for 16 hr) is listed as “complete rescue”. Moreover, the figures for the mushroom spine loss entry in test [2] (PS1KI cultures infected with control RNAi lentiviruses), in test [2] (PS1KI hippocampal neurons following knockdown of TRPC6 or Orai2) and in test [2] (wild-type neurons with knockdown of TRPC6 or Orai2) were “rescued mushroom spine loss”, “failed to rescue mushroom spine loss” and “failed to rescue”, respectively. The “fraction of mushroom spines” value in test [2] (wild-type neurons, 30 nM for 16 hr) is reported as “no significant effect”.
